Source: patent publication EP0149818A2, “1,4-Naphthoquinone derivatives, process for their preparation and their use as medicines” (Troponwerke GmbH & Co. KG, priority 1983, dated 1985)

Key:
[1] = tested on: durch das chemotaktisch wirkende FMLP stimulierte Aggregation von PMN-Leukozyten; assay: Inhibition of FMLP-stimulated aggregation of PMN leukocytes (method of Cunningham et al.); type: cell-based; conditions: Leukocyte
Source text: Darüber hinaus konnte für eine Reihe von Verbindungen der allgemeinen Formel I nachgewiesen werden, daß sie die durch das chemotaktisch wirkende FMLP stimulierte Aggregation von PMN-Leukozyten hemmen und dadurch Anteil an der entzündungshemmenden Wirkung haben (Methode von Cunningham et al., Agents & Actions 11, 583 (1981)). Für Verb. 1 ist die IC50 in diesem Test 3.7 x 10^-5 Mol/l.

[2] = tested on: durch Carrageenan ausgelöste ödem der Rattenpfote; assay: Carrageenan-induced rat paw oedema (method of Winter et al., modified: pure λ-carrageenan as 0,25 % suspension in saline); type: in vivo, Ratte; conditions: po, p.o, λ-carrageenan 0,25 % suspension, read-out: DE50 (the source's name)
Procedure: Die Verbindungen der allgemeinen Formel I hemmen das durch Carrageenan ausgelöste ödem der Rattenpfote stark. Zum Nachweis diente die Methode von Winter et al., Proc. Soc. Exp. Bil. Med. 111, 544 (1962), mit der Abwandlung, daß zur ödemauslösung reines λ-carrageenan als 0,25 % Suspension in physiologischer Kochsalzlösung verwendet wurde. Beispielhaft wurde in diesem Testmodell für Verb. 1 die DE50 = 0,5 mg/kg p.o ermittelt.

[3] = tested on: Metabolisierung der Arachidonsäure über den Cyclooxygenaseweg; assay: Inhibition of arachidonic acid metabolism via the cyclooxygenase pathway (method of Brune et al.); type: cell-based
Source text: Wie die meisten NSAID (non steroidal antiinflammatory drugs) hemmen auch die meisten Verbindungen der allgemeinen Formel I die Metabolisierung der Arachidonsäure über den Cyclooxygenaseweg mehr oder weniger stark (Methode von Brune et al., Naunyn-Schmiedeberg's Arch. Pharmacol. 315, 269 (1981)). Die IC50 für Verb. 1 in diesem Test beträgt 2.6 x 10-^6 Mol/l.

IC50 [1]: 37 µM
IC50 [3]: 2.6 µM
Structure (SMILES): O=C1C(O)=C(NCc2ccccc2)C(=O)c2ccccc21 [Verb. 1, 2-Benzylamino-3-hydroxy-naphthochinon-1,4]
ED50 [2]: 0.5 mg/kg
